Experimental data reported in patent US11000491B2, “Amino-aryl-benzamide compounds and methods of use thereof” (HEPANOVA, INC., priority 2017, dated 2021).
Where two headings read alike, the source gives them in different places.

How the values were obtained:
Type in all cases: cell-based
SREBP-1 = SREBP-1 expression in cultured primary human hepatocytes; conditions: procedure of Example 6, read-out: SREBP-1 mRNA inhibition (EC50)
Procedure: (§1) FIG. 9. Effects of HPN-01 on the expression of SREBP-1 (master regulator of hepatic glucose metabolism and fatty acid synthesis) and SREBP-2 (master regulator of cholesterol homeostasis in cells) in cultured primary human hepatocytes.
(§2) Cultured primary human hepatocytes were treated with various concentrations of HPN-01, and the expression levels of SREBP-1 (master regulator of hepatic glucose metabolism and fatty acid synthesis) and SREBP-2 (master regulator of cholesterol homeostasis in cells) were subsequently determined.
(§3) The ability of each HPN-01 derivative obtained from the synthesis methods described above, to inhibit SREBP-1 and SREBP-2 mRNA expression in primary hepatocytes, was tested using the procedure outlined in Example 6. The results of this analysis are shown in Table 6 (third and fourth columns).

Huh7 cells = assay: LD content in Huh7 cells pre-treated with insulin, Oil-Red-O staining, absorbance OD 540 nm; conditions: procedure of Example 3, read-out: LD content inhibition (EC50)
Procedure: FIG. 6. […] Spectrophotometric absorbance of untreated or HPN-01-treated Huh7 cells pre-incubated with 1 mM insulin is shown. LD contents were stained using Oil Red O, and measured by determining spectrophotometer absorbance under OD 540 nm.
Huh7 cells were mock treated or pre-treated with 1 mM insulin, and subsequently treated with indicated amounted of HPN-01.
The ability of each HPN-01 derivative obtained from the synthesis methods described above, to inhibit LD formation in hepatocytes, was tested using the procedure outlined in Example 3. The results of this analysis are shown below in Table 6 (second column).

SREBP-2 = SREBP-2 expression in cultured primary human hepatocytes; conditions: procedure of Example 6, read-out: SREBP-2 mRNA inhibition (EC50)
Procedure: as §1, §2, §3

[1] = Homo sapiens, Huh-7, Huh7 cells

| Compound | EC50 (SREBP-1) [nM] | EC50 (Huh7 cells; Huh7 cells) [nM] | EC50 (SREBP-2) [nM] | EC50 (SREBP-1; Homo sapiens, Hepatocyte) [nM] | EC50 (Huh7 cells; [1]) [nM] | EC50 (SREBP-2; Homo sapiens, Hepatocyte) [nM] |
| --- | --- | --- | --- | --- | --- | --- |
| 2-amino-5-((3-chlorophenyl)ethynyl)-4′-sulfamoyl-[1,1′-biphenyl]-3-carboxamide [HPN-01206] | 1680 | 900 | 1070 | – | – | – |
| 2-amino-5-((4-fluorophenyl)ethynyl)-4′-sulfamoylbiphenyl-3-carboxamide [HPN-01203] | 1700 | 550 | 2100 | – | – | – |
| 4-(4′-amino-4-bromo-4″-sulfamoyl-[1,1′:3′,1″-terphenyl]-5′-yl)piperazine-1-carboxamide [HPN-01624] | 7540 | 1300 | 13500 | – | – | – |
| 4′-(2-aminoacetamido)-4-chloro-4″-ureido-[1, 1′:3′,1″-terphenyl]-5′-carboxamide [HPN-01518] | 2920 | 1110 | 4860 | – | – | – |
| 4′-acetamido-4-chloro-4″-ureido-[1,1′:3′,1″-terphenyl]-5′-carboxamide [HPN-01505] | 1360 | 590 | 2410 | – | – | – |
| 4′-butyramido-4-chloro-4″-sulfamoyl-[1,1′:3′,1″-terphenyl]-5′-carboxamide [HPN-01515] | 950 | 480 | 1320 | – | – | – |
| NC(=O)c1cc(/C=C/c2cccc(Cl)c2)cc(-c2ccc(S(N)(=O)=O)cc2)c1N [HPN-01102, (E)-2-amino-5-(3-chlorostyryl)-4′-sulfamoyl-[1,1′-biphenyl]-3-carboxamide] | – | – | – | 1610 | 460 | 3370 |
| NC(=O)c1cc(/C=C/c2cccc(Br)c2)cc(-c2ccc(S(N)(=O)=O)cc2)c1N [HPN-01103, (E)-2-amino-5-(3-bromostyryl)-4′-sulfamoyl-[1,1′-biphenyl]-3-carboxamide] | – | – | – | 2140 | 990 | 3080 |
| NC(=O)c1cc(/C=C/c2cccc(F)c2)cc(-c2ccc(S(N)(=O)=O)cc2)c1N [HPN-01104, (E)-2-amino-5-(3-fluorostyryl)-4′-sulfamoyl-[1,1′-biphenyl]-3-carboxamide] | – | – | – | 2080 | 670 | 3260 |
| CC(=O)Oc1ccc(/C=C/c2cc(C(N)=O)c(N)c(-c3ccc(S(N)(=O)=O)cc3)c2)cc1 [HPN-01105, (E)-4-(2-(6-amino-5-carbamoyl-4′-sulfamoyl-[1,1′-biphenyl]-3-yl)vinyl)phenyl acetate] | – | – | – | 3240 | 1090 | 5260 |
| CC(=O)Nc1ccc(/C=C/c2cc(C(N)=O)c(N)c(-c3ccc(S(N)(=O)=O)cc3)c2)cc1 [HPN-01106, (E)-5-(4-acetamidostyryl)-2-amino-4′-sulfamoyl-[1,1′-biphenyl]-3-carboxamide] | – | – | – | 6350 | 2850 | 6450 |
| NC(=O)c1cc(/C=C/c2ccc(Cl)cc2)cc(-c2ccc(S(N)(=O)=O)cc2)c1N [HPN-01107, (E)-2-amino-5-(4-chlorostyryl)-4′-sulfamoyl-[1,1′-biphenyl]-3-carboxamide] | – | – | – | 5660 | 1170 | 7370 |
| NC(=O)c1cc(/C=C/c2ccccc2Cl)cc(-c2ccc(S(N)(=O)=O)cc2)c1N [HPN-01108, (E)-2-amino-5-(2-chlorostyryl)-4′-sulfamoyl-[1,1′-biphenyl]-3-carboxamide] | – | – | – | 2590 | 550 | 4670 |
| NC(=O)c1cc(/C=C/c2ccc(Br)cc2)cc(-c2ccc(S(N)(=O)=O)cc2)c1N [HPN-01109, (E)-2-amino-5-(4-bromostyryl)-4′-sulfamoyl-[1,1′-biphenyl]-3-carboxamide] | – | – | – | 2710 | 1370 | 4460 |
| CC(=O)Oc1cccc(/C=C/c2cc(C(N)=O)c(N)c(-c3ccc(S(N)(=O)=O)cc3)c2)c1 [HPN-01110, (E)-3-(2-(6-amino-5-carbamoyl-4′-sulfamoyl-[1,1′-biphenyl]-3-yl)vinyl)phenyl acetate] | – | – | – | 2260 | 810 | 3600 |
| CCCC(=O)Oc1cccc(/C=C/c2cc(C(N)=O)c(N)c(-c3ccc(S(N)(=O)=O)cc3)c2)c1 [HPN-01111, (E)-3-(2-(6-amino-5-carbamoyl-4′-sulfamoyl-[1,1′-biphenyl]-3-yl)vinyl)phenyl butyrate] | – | – | – | 2080 | 750 | 2440 |
| CCCC(=O)Nc1cccc(/C=C/c2cc(C(N)=O)c(N)c(-c3ccc(S(N)(=O)=O)cc3)c2)c1 [HPN-01112, (E)-2-amino-5-(3-butyramidostyryl)-4′-sulfamoyl-[1,1′-biphenyl]-3-carboxamide] | – | – | – | 2030 | 650 | 1360 |
| NC(=O)c1cc(/C=C/C(=O)O)cc(-c2ccc(S(N)(=O)=O)cc2)c1N [HPN-01113, (E)-3-(6-amino-5-carbamoyl-4′-sulfamoyl-[1,1′-biphenyl]-3-yl)acrylic acid] | – | – | – | 690 | 330 | 970 |
| CCOC(=O)/C=C/c1cc(C(N)=O)c(N)c(-c2ccc(S(N)(=O)=O)cc2)c1 [HPN-01115, ethyl (E)-3-(6-amino-5-carbamoyl-4′-sulfamoyl-[1,1′-biphenyl]-3-yl)acrylate] | – | – | – | 6420 | 2350 | 5990 |
| CC(C)OC(=O)/C=C/c1cc(C(N)=O)c(N)c(-c2ccc(S(N)(=O)=O)cc2)c1 [HPN-01116, isopropyl (E)-3-(6-amino-5-carbamoyl-4′-sulfamoyl-[1,1′-biphenyl]-3-yl)acrylate] | – | – | – | 3740 | 1010 | 5010 |
| CCCCCCCOC(=O)/C=C/c1cc(C(N)=O)c(N)c(-c2ccc(S(N)(=O)=O)cc2)c1 [HPN-01118, heptyl (E)-3-(6-amino-5-carbamoyl-4′-sulfamoyl-[1,1′-biphenyl]-3-yl)acrylate] | – | – | – | 2340 | 840 | 2510 |
| NC(=O)c1cc(/C=C/C(=O)OCc2ccccc2)cc(-c2ccc(S(N)(=O)=O)cc2)c1N [HPN-01120, benzyl (E)-3-(6-amino-5-carbamoyl-4′-sulfamoyl-[1,1′-biphenyl]-3-yl)acrylate] | – | – | – | 6440 | 680 | 5100 |
| NC(=O)c1cc(/C=C/C(=O)Nc2ccc(C(=O)O)cc2)cc(-c2ccc(S(N)(=O)=O)cc2)c1N [HPN-01121, (E)-4-(3-(6-amino-5-carbamoyl-4′-sulfamoyl-[1,1′-biphenyl]-3-yl)acrylamido)benzoic acid] | – | – | – | 6590 | 2140 | 8040 |
| NC(=O)c1cc(/C=C/C(=O)Nc2ccc(O)cc2)cc(-c2ccc(S(N)(=O)=O)cc2)c1N [HPN-01122, (E)-2-amino-5-(3-((4-hydroxyphenyl)amino)-3-oxoprop-1-en-1-yl)-4′-sulfamoyl-[1,1′-biphenyl]-3-carboxamide] | – | – | – | 9610 | 2440 | 7290 |
| NC(=O)c1cc(/C=C/C(=O)OCCc2ccccc2)cc(-c2ccc(S(N)(=O)=O)cc2)c1N [HPN-01123, phenethyl (E)-3-(6-amino-5-carbamoyl-4′-sulfamoyl-[1,1′-biphenyl]-3-yl)acrylate] | – | – | – | 3450 | 890 | 4450 |
| Cc1ccc(NC(=O)/C=C/c2cc(C(N)=O)c(N)c(-c3ccc(S(N)(=O)=O)cc3)c2)cc1 [HPN-01126, (E)-2-amino-5-(3-oxo-3-(p-tolylamino)prop-1-en-1-yl)-4′-sulfamoyl-[1,1′-biphenyl]-3-carboxamide] | – | – | – | 2430 | 830 | 4540 |
